For the test, the system named is ad libitum fed rat. The test can be described thus: Assay (I) efficacy testing on appetite (food intake) using an ad libitum fed rat model. It is filed as in vivo, Sprague Dawley (SD) rats. As to conditions: 3 nmol/kg. From the text:
In the following examples reference is made to the following Assays: • Assay (I)—Experimental protocol for efficacy testing on appetite using an ad libitum fed rat model • ASSAY (II)a—Functional assay—Human calcitonin and amylin receptor assay • ASSAY (II)b—Functional assay—Rat calcitonin and rat amylin receptor assays • ASSAY (III)—ThT fibrillation assays for the assessment of physical stability of protein formulations • ASSAY (IV)—Determination of solubility • ASSAY (V)—Determination of binding to the human amylin receptor • ASSAY (VI)—Determination of the binding to the rat amylin receptor • ASSAY (VII)—Determination of binding to the human calcitonin receptor • ASSAY (VIII)—Determination of binding to the rat calcitonin receptor • ASSAY (IX)—pK—Determination of T½ in mini-pig • ASSAY (X)—pK—Determination of T½ in rat Assay (I)—Experimental protocol for Efficacy Testing on Appetite Using an Ad Libitum Fed Rat Model
Sprague Dawley (SD) rats from Taconic Europe, Denmark are used for the experiments. The rats have a body weight 200-250 g at the start of experiment. The rats arrive at least 10-14 days before start of experiment to allow acclimatization to experimental settings. During this period the animals are handled at least 2 times. After arrival rats are housed individually for one week in a reversed light/dark phase (meaning that lights are off during daytime and on during nighttime) […]. Since rats are normally active and eat their major part of their daily food intake during the dark period, rats are dosed in the morning right before lights are turned off. This set-up results in the lowest data variation and highest test sensitivity. The experiment is conducted in the rats' home cages and rats have free access to food and water throughout the acclimatization period and the experiment period. Each dose of derivative is tested in a group of 5-8 rats. A vehicle group of 6-8 rats is included in each set of testing. Rats are dosed once according to body weight with a 0.01-3 mg/kg solution administered intraperitoneally (ip), orally (po) or subcutaneously (sc). The time of dosing is recorded for each group. After dosing, the rats are returned to their home cages, where they then have access to food and water. The food consumption is recorded individually continuously by on-line registration or manually every hour for 7 hours, and then after 24 h and sometimes 48 h. At the end of the experimental session, the animals are euthanised.
The individual data are recorded in Microsoft excel sheets. Outliers are excluded after applying the Grubbs statistical evaluation test for outliers, and the result is presented graphically using the GraphPad Prism program.

Structures are written as SMILES. Starred links: 1 amine or outer side, 2 acyl side, 3 side chain; linkers in the order of their positions; H or OH if unused. Positions of bridges follow the written chain, without caps; N, C: chain ends. Non-standard residues stand in square brackets, D forms with d. Residues, ends and D or L forms follow the SMILES beside them. *: point of attachment. C20 diacid = O=C(O)CCCCCCCCCCCCCCCCCCC(=O)*; C18 diacid = O=C(O)CCCCCCCCCCCCCCCCC(=O)*; γGlu = O=C(O)[C@H](CCC(=O)[*:2])N[*:1]; Orn = NCCC[C@H](N)C(=O)O; AEEA = NCCOCCOCC(=O)O

For `CC[C@H](C)[C@H](NC(=O)[C@@H]1CCCN1C(=O)CNC(=O)[C@H](Cc1ccccc1)NC(=O)[C@H](CC(N)=O)NC(=O)[C@H](CC(N)=O)NC(=O)[C@H](CO)NC(=O)[C@H](CO)NC(=O)[C@H](CCCNC(=N)N)NC(=O)[C@@H](NC(=O)[C@H](CC(C)C)NC(=O)[C@H](Cc1ccccc1)NC(=O)[C@H](CCC(=O)O)NC(=O)[C@H](C)NC(=O)[C@H](CC(C)C)NC(=O)[C@H](CCCNC(=N)N)NC(=O)[C@H](CCC(N)=O)NC(=O)[C@@H](NC(=O)[C@H](C)NC(=O)[C@@H]1CSSC[C@H](NC(=O)[C@H](Cc2c[nH]cn2)NC(=O)CC[C@H](NC(=O)CCCCCCCCCCCCCCCCCCC(=O)O)C(=O)O)C(=O)N[C@@H](CC(N)=O)C(=O)N[C@@H]([C@@H](C)O)C(=O)N[C@@H](C)C(=O)N[C@@H]([C@@H](C)O)C(=O)N1)[C@@H](C)O)C(C)C)C(=O)N[C@@H](CC(C)C)C(=O)N1CCC[C@H]1C(=O)N1CCC[C@H]1C(=O)N[C@H](C(=O)N[C@@H](CC(N)=O)C(=O)N[C@H](C(=O)NCC(=O)N[C@@H](CO)C(=O)N[C@@H](CC(N)=O)C(=O)N[C@H](C(=O)N[C@@H](Cc1ccc(O)cc1)C(N)=O)[C@@H](C)O)C(C)C)[C@@H](C)O` [Example 15] ({C20 diacid-γGlu}-HCNTATCATQRLAEFLVRSSNNFGPILPPTNVGSNTY-NH2; disulfide 2-7 (inferred)), the “Food intake reduction 0-24 h 3 nmol/kg (%)” value is recorded as 56% and the “Food intake reduction 24-48 h 3 nmol/kg (%)” value was 59%.

Regarding `CC[C@H](C)[C@H](NC(=O)[C@@H]1CCCN1C(=O)CNC(=O)[C@H](Cc1ccccc1)NC(=O)[C@H](CC(N)=O)NC(=O)[C@H](CC(N)=O)NC(=O)[C@H](CO)NC(=O)[C@H](CO)NC(=O)[C@H](Cc1c[nH]cn1)NC(=O)[C@H](Cc1c[nH]cn1)NC(=O)[C@H](CC(C)C)NC(=O)[C@H](Cc1ccccc1)NC(=O)[C@H](CCC(=O)O)NC(=O)[C@H](C)NC(=O)[C@H](CC(C)C)NC(=O)[C@H](CCCNC(=N)N)NC(=O)[C@H](CCC(N)=O)NC(=O)[C@@H](NC(=O)[C@H](C)NC(=O)[C@@H]1CSSC[C@H](NC(=O)[C@H](CCCCN)NC(=O)CC[C@H](NC(=O)CCCCCCCCCCCCCCCCC(=O)O)C(=O)O)C(=O)N[C@@H](CC(N)=O)C(=O)N[C@@H]([C@@H](C)O)C(=O)N[C@@H](C)C(=O)N[C@@H]([C@@H](C)O)C(=O)N1)[C@@H](C)O)C(=O)N[C@@H](CC(C)C)C(=O)N1CCC[C@H]1C(=O)N1CCC[C@H]1C(=O)N[C@H](C(=O)N[C@@H](CC(N)=O)C(=O)N[C@H](C(=O)NCC(=O)N[C@@H](CO)C(=O)N[C@@H](CC(N)=O)C(=O)N[C@H](C(=O)N[C@@H](Cc1ccc(O)cc1)C(N)=O)[C@@H](C)O)C(C)C)[C@@H](C)O` [Example 46, N-alpha-[(S)-4-Carboxy-4-(17-carboxyheptadecanoylamino)butyryl]-[Glu14,His17]-pramlintide] ({C18 diacid-γGlu}-KCNTATCATQRLAEFLHHSSNNFGPILPPTNVGSNTY-NH2; disulfide 2-7 (inferred); C-terminus assumed), the “Food intake reduction 0-24 h 3 nmol/kg (%)” value turned out to be 54% and the “Food intake reduction 24-48 h 3 nmol/kg (%)” value is recorded as 27%.

`CC[C@H](C)[C@H](NC(=O)[C@@H]1CCCN1C(=O)CNC(=O)[C@H](Cc1ccccc1)NC(=O)[C@H](CC(N)=O)NC(=O)[C@H](CC(N)=O)NC(=O)[C@H](CO)NC(=O)[C@H](CO)NC(=O)[C@H](CCCNC(=N)N)NC(=O)[C@H](Cc1c[nH]cn1)NC(=O)[C@H](CC(C)C)NC(=O)[C@H](Cc1ccccc1)NC(=O)[C@H](CCC(=O)O)NC(=O)[C@H](C)NC(=O)[C@H](CC(C)C)NC(=O)[C@H](CCCNC(=N)N)NC(=O)[C@H](CCC(N)=O)NC(=O)[C@@H](NC(=O)[C@H](C)NC(=O)[C@@H]1CSSC[C@H](NC(=O)[C@H](CCCN)NC(=O)[C@@H](CCCNC(=N)N)NC(=O)[C@@H](CCCNC(=N)N)NC(=O)COCCOCCNC(=O)COCCOCCNC(=O)CC[C@H](NC(=O)CCCCCCCCCCCCCCCCC(=O)O)C(=O)O)C(=O)N[C@@H](CC(N)=O)C(=O)N[C@@H]([C@@H](C)O)C(=O)N[C@@H](C)C(=O)N[C@@H]([C@@H](C)O)C(=O)N1)[C@@H](C)O)C(=O)N[C@@H](CC(C)C)C(=O)N1CCC[C@H]1C(=O)N1CCC[C@H]1C(=O)N[C@H](C(=O)N[C@@H](CC(N)=O)C(=O)N[C@H](C(=O)NCC(=O)N[C@@H](CO)C(=O)N[C@@H](CC(N)=O)C(=O)N[C@H](C(=O)N[C@@H](Cc1ccc(O)cc1)C(N)=O)[C@@H](C)O)C(C)C)[C@@H](C)O` [Example 120, N-alpha-[2-(2-{2-[2-(2-{2-[(S)-4-Carboxy-4-(17-carboxyheptadecanoylamino)butyrylamino]ethoxy}ethoxy)acetylamino]ethoxy}ethoxy)acetyl]-D-Arg-D-Arg-[Orn1,Glu14,His17,Arg18]-pramlintide] ({C18 diacid-γGlu-AEEA-AEEA}-[dR][dR][Orn]CNTATCATQRLAEFLHRSSNNFGPILPPTNVGSNTY-NH2; disulfide 4-9 (inferred)): the “Food intake reduction 0-24 h 3 nmol/kg (%)” value is 53% and the “Food intake reduction 24-48 h 3 nmol/kg (%)” value is recorded as 2%.

Consider `CC[C@H](C)[C@H](NC(=O)[C@H](CCC(=O)O)NC(=O)CNC(=O)[C@H](Cc1ccccc1)NC(=O)[C@H](CC(N)=O)NC(=O)[C@H](CC(N)=O)NC(=O)[C@H](CO)NC(=O)[C@H](CO)NC(=O)[C@H](CCCNC(=N)N)NC(=O)[C@H](Cc1c[nH]cn1)NC(=O)[C@H](CC(C)C)NC(=O)[C@H](Cc1ccccc1)NC(=O)[C@H](CCC(=O)O)NC(=O)[C@H](C)NC(=O)[C@H](CC(C)C)NC(=O)[C@H](CCCNC(=N)N)NC(=O)[C@H](CCC(N)=O)NC(=O)[C@@H](NC(=O)[C@H](C)NC(=O)[C@@H]1CSSC[C@H](NC(=O)[C@H](Cc2c[nH]cn2)NC(=O)CC[C@H](NC(=O)CCCCCCCCCCCCCCCCCCC(=O)O)C(=O)O)C(=O)N[C@@H](CC(N)=O)C(=O)N[C@@H]([C@@H](C)O)C(=O)N[C@@H](C)C(=O)N[C@@H]([C@@H](C)O)C(=O)N1)[C@@H](C)O)C(=O)N[C@@H](CC(C)C)C(=O)N[C@@H](CO)C(=O)N[C@@H](CCCNC(=N)N)C(=O)N[C@H](C(=O)N[C@@H](CC(N)=O)C(=O)N[C@H](C(=O)NCC(=O)N[C@@H](CO)C(=O)N[C@@H](CC(N)=O)C(=O)N[C@H](C(=O)N[C@@H](Cc1ccc(O)cc1)C(N)=O)[C@@H](C)O)C(C)C)[C@@H](C)O` [Example 7, N-alpha-[(S)-4-Carboxy-4-(19-carboxynonadecanoylamino)butyryl]-[His1,Glu14,His17,Arg18,Glu25,Ser28,Arg29]-pramlintide] ({C20 diacid-γGlu}-HCNTATCATQRLAEFLHRSSNNFGEILSRTNVGSNTY-NH2; disulfide 2-7 (inferred)), for which the “Food intake reduction 0-24 h 3 nmol/kg (%)” value stood at 53% and the “Food intake reduction 24-48 h 3 nmol/kg (%)” value was determined as 46%.

As to `CC[C@H](C)[C@H](NC(=O)[C@@H]1CCCN1C(=O)CNC(=O)[C@H](Cc1ccccc1)NC(=O)[C@H](CC(N)=O)NC(=O)[C@H](CC(N)=O)NC(=O)[C@H](CO)NC(=O)[C@H](CO)NC(=O)[C@H](Cc1c[nH]cn1)NC(=O)[C@H](Cc1c[nH]cn1)NC(=O)[C@H](CC(C)C)NC(=O)[C@H](Cc1ccccc1)NC(=O)[C@H](CCC(=O)O)NC(=O)[C@H](C)NC(=O)[C@H](CC(C)C)NC(=O)[C@H](CCCNC(=N)N)NC(=O)[C@H](CCC(N)=O)NC(=O)[C@@H](NC(=O)[C@H](C)NC(=O)[C@@H]1CSSC[C@H](NC(=O)CC[C@H](NC(=O)CCCCCCCCCCCCCCCCCCC(=O)O)C(=O)O)C(=O)N[C@@H](CC(N)=O)C(=O)N[C@@H]([C@@H](C)O)C(=O)N[C@@H](C)C(=O)N[C@@H]([C@@H](C)O)C(=O)N1)[C@@H](C)O)C(=O)N[C@@H](CC(C)C)C(=O)N1CCC[C@H]1C(=O)N1CCC[C@H]1C(=O)N[C@H](C(=O)N[C@@H](CC(N)=O)C(=O)N[C@H](C(=O)NCC(=O)N[C@@H](CO)C(=O)N[C@@H](CC(N)=O)C(=O)N[C@H](C(=O)N[C@@H](Cc1ccc(O)cc1)C(N)=O)[C@@H](C)O)C(C)C)[C@@H](C)O` [Example 28, N-alpha-[(S)-4-Carboxy-4-(19-carboxynonadecanoylamino)butyryl]-[des1,Glu14,His17]-pramlintide] ({C20 diacid-γGlu}-CNTATCATQRLAEFLHHSSNNFGPILPPTNVGSNTY-NH2; disulfide 1-6), the “Food intake reduction 0-24 h 3 nmol/kg (%)” value stood at 39% and the “Food intake reduction 24-48 h 3 nmol/kg (%)” value was 36%.

(Values after US8741836B2, “Polypeptides” (Novo Nordisk A/S, priority 2011, dated 2014).)
